Assay results taken from patent publication US9596851B1, “Method for controlling growth of red palm weevil” (priority 2015, dated 2017).
Where two headings read alike, the source gives them in different places.

Columns and labels:
[1] = tested on: Red Palm Weevil larvae; experiment: Growth indices bioassay (nutritional indices ECI, ECD, AD) on coumarin-incorporated artificial diet; assay type: in vivo, Rhynchophorus ferrugineus; settings: 72 hours post exposure; for inhibition at 1000 ppm: Rhynchophorus ferrugineus, feed or water, 72 h, 1000 ppm in diet
Procedure: Impact of different doses of coumarin on the growth and development of different larval instars of red palm weevil was evaluated by growth indices bioassays. All the solutions of coumarin were prepared by dissolving in 0.05% acetone. The ingredients of artificial diet (wheat flour @ 45 g/L, corn flour @ 45 g/L, Yeast @ 45 g/L, Agar @ 17.5 g/L, Sorbic acid @ 1.6 g/L, L-Ascorbic Acid @ 4 g/L, Pharmaton (2 capsules/L), Tetracycline @ 500 mg/L) were dissolved in 1 L of coumarin solution with strength 200 mg/L, 400 mg/L, 600 mg/L, 800 mg/L and 1000 mg/L of coumarin, separately. Newly moulted 4th, 8th and 12th instar Red Palm Weevil larvae were allowed to feed on each diet separately in perforated plastic bowls. In case of control treatment, 0.05% acetone was used to prepare the diet. Twenty larvae were used to compile one replicate. Five replicates were prepared likewise. The fresh diet was daily provided to the larvae. The experimental units were incubated at 30±1° C. and 75%±5% relative humidity. Initial and final weight of the larvae and the frass produced during 72 hours post exposure was also measured. These measurements were used to determine the impact of coumarin on the nutritional indices including: Approximate Digestibility [AD=([…]−frass weight)/food ingested×100], Efficacy of conversion of digested food [ECD=weight gained by the larva/(food ingested−dry weight of frass)×100] and Efficacy of conversion of ingested food [ECI=100×dry weight gained by the larva/dry weight of food consumed].
For growth indices, measurements were made 72 hours post-exposure on dry matter basis. Larvae, frass and remaining food after 72 h were dried at 60° C. until constant weight. Growth indices data were analyzed by one way analysis of variance (ANOVA). Means were compared by Fisher's Least Significant Difference (LSD) test.

[2] = tested on: Red Palm Weevil larvae; experiment: Insecticidal potential of coumarin at different doses incorporated in artificial diet (mortality bioassay); assay type: in vivo, Rhynchophorus ferrugineus; settings: for EC50 / LD50: artificial diet, after three days
Procedure: Insecticidal potential of coumarin at different dose concentrations (200 ppm, 400 ppm, 600 ppm, 800 ppm and 1000 ppm) was evaluated against 4th, 8th and 12th instar Red Palm Weevil larvae. The above mentioned concentrations of coumarin were prepared by dissolving coumarin in 0.05% acetone. The ingredients of artificial diet (wheat flour @ 45 g/L, corn flour @ 45 g/L, Yeast @ 45 g/L, Agar @ 17.5 g/L, Sorbic acid @ 1.6 g/L, L-Ascorbic Acid @ 4 g/L, Pharmaton (2 capsules/L), Tetracycline @ 500 mg/L) were dissolved in 1 L of coumarin solution with strength 200 mg/L, 400 mg/L, 600 mg/L, 800 mg/L and 1000 mg/L, separately. The newly moulted 4th, 8th and 12th instar Red Palm Weevil larvae were allowed to feed on each diet separately in perforated plastic bowls. In case of control treatment, 0.05% acetone was used to prepare the diet. Twenty larvae were used to compile one replicate. Five replicates were prepared likewise. The fresh diet was provided daily to the larvae. The experimental units were incubated at 30±1° C. and 75%±5% relative humidity. Abbot formula was used to correct the control mortality (Abbott, 1925). Efficacy of coumarin was determined at each dose to calculate LD50 values.

[3] = 4th, 8th and 12th instar larvae, 200-1000 ppm in diet

## O=c1ccc2ccccc2o1 [coumarin]
[1]; [3]
  approximate digestibility (AD): significantly increased
[1]; 4th instar larvae, read-out: ECD (efficacy of conversion of digested food) inhibition compared to control
  inhibition at 1000 ppm: 96.9%
[1]; 4th instar larvae, read-out: ECI (efficacy of conversion of ingested food) inhibition compared to control
  inhibition at 1000 ppm: 95.6%
[1]; 8th instar larvae, read-out: ECD (efficacy of conversion of digested food) inhibition compared to control
  inhibition at 1000 ppm: 89%
[1]; 8th instar larvae, read-out: ECI (efficacy of conversion of ingested food) inhibition compared to control
  inhibition at 1000 ppm: 84%
[1]; 12th instar larvae, read-out: ECD (efficacy of conversion of digested food) inhibition compared to control
  inhibition at 1000 ppm: 78.5%
[1]; 12th instar larvae, read-out: ECI (efficacy of conversion of ingested food) inhibition compared to control
  inhibition at 1000 ppm: 69.4%
[2]; 4th instar larvae
  EC50: 293.77 ppm
  LD50: 404.55 ppm
[2]; [3]
  mortality versus dose: directly proportional
[2]; 8th instar larvae
  EC50: 438.32 ppm
  LD50: 509.37 ppm
[2]; 12th instar larvae
  EC50: 559.77 ppm
  LD50: 708.24 ppm
